From ChEMBL document CHEMBL5661943, “ASAP - In vitro antiviral effect” (2024)
Values joined by “and” are separate entries in the source; they are usually repeats but may differ in a detail not shown here. Identical values can stand only once.

How the values were obtained:
dengue virus type 2 [1] = experiment: Functional immunofluorescence assay to measure dose dependent changes in antiviral-drug inhibitory efficacy against Dengue virus type 2 Thailand/16681/84 in Vero E6/TMPRSS2 cells (cotreated with P-gp inhibitor, Elacridar). Cells are treated with antiviral candidates that are serially diluted, following infection, cells are fixed. EC50 is reported via analysis of immunofluorescence staining. The assay has been performed by Icahn School of Medicine at Mount Sinai.; type: organism-based, Chlorocebus sabaeus, VeroE6/TMPRSS2; conditions: for EC90: P-gp concentration 2 uM, P-gp inhibitor Elacidar
dengue virus type 2 [2] = experiment: Functional assay to measure dose dependent changes in antiviral-drug inhibitory efficacy against Dengue virus type 2 New Guinea C in Vero E6 miRFP670 cells (cotreated with P-gp inhibitor, CP100356). Cells are treated with antiviral candidates that are serially diluted, following infection, cells are fixed. EC50 is reported via analysis of fluorescence intensity using high-content imager. The …; type: organism-based, Chlorocebus sabaeus, Vero C1008; conditions: Dengue virus; for EC90: P-gp concentration 500 nM, P-gp inhibitor CP100356
Zika virus = experiment: EC50 is reported via analysis of immunofluorescence staining. The assay has been performed by Icahn School of Medicine at Mount Sinai.; type: functional, organism-based, Chlorocebus sabaeus, VeroE6/TMPRSS2

Work on `NCc1cccc(NC(=O)c2cc(Cl)cc(-n3cccc3)c2)c1` yielded an EC50 (dengue virus type 2 [1]; Dengue virus, VeroE6/TMPRSS2) of 13.9 µM, an EC90 (dengue virus type 2 [1]; Dengue virus, VeroE6/TMPRSS2, Baseline response 0 %, Hill slope -2.713, Maximum measured 77.83 %, Maximum response 65.791 %, Minimum measured 24.724 %, R squared 0.597) greater than 16.7 µM and an EC50 (dengue virus type 2 [2]; Vero C1008) of 14.4 µM. For the same compound, the EC90 (dengue virus type 2 [2]; Vero C1008, Baseline response 0 %, EC90 CI (lower) 7.414 uM, EC90 CI (upper) 19.74 uM, Hill slope -12.44, Maximum measured 108.218 %, Maximum response 100 %, Minimum measured 0.325 %, R squared 0.952) was 17.2 µM, the EC50 (Zika virus; Zika virus, VeroE6/TMPRSS2) was greater than 5.56 µM and the EC90 (Zika virus; Zika virus, VeroE6/TMPRSS2, Maximum measured 124.363 %, Minimum measured 74.851 %, P-gp concentration 2 uM, P-gp inhibitor Elacidar) was greater than 5.56 µM.
For `NCc1cccc(NC(=O)c2cc(Cl)cc(CN)c2)c1`, the EC90 (dengue virus type 2 [1]; Baseline response 0 %, Hill slope -0.259, Maximum measured 118.193 %, Maximum response 100 %, Minimum measured 55.278 %, R squared 0.275) was greater than 10 µM, the EC90 (dengue virus type 2 [1]; Baseline response 0 %, Hill slope -0.379, Maximum measured 148.524 %, Maximum response 100 %, Minimum measured 29.621 %, R squared 0.276) was greater than 50 µM and the EC50 (dengue virus type 2 [1]; veroe6/tmprss2) was > 10 µM and 48.2 µM. For the same compound, the EC90 (Zika virus; Zika virus, VeroE6/TMPRSS2, Maximum measured 123.027 %, Minimum measured 86.3 %, P-gp concentration 2 uM, P-gp inhibitor Elacidar) was greater than 50 µM, the EC90 (Zika virus; Zika virus, VeroE6/TMPRSS2, Baseline response 0 %, Hill slope -0.468, Maximum measured 130.938 %, Maximum response 100 %, Minimum measured 51.052 %, P-gp concentration 2 uM, R squared 0.396, P-gp inhibitor Elacidar) was greater than 3.33 µM and the EC50 (Zika virus; veroe6/tmprss2) was greater than 50 µM.
In the case of `c1ccc2c(CN3CCC(c4cscn4)CC3)c[nH]c2c1`, the EC90 (dengue virus type 2 [1]; Baseline response 0 %, Hill slope -0.247, Maximum measured 100.251 %, Maximum response 100 %, Minimum measured 62.836 %, R squared 0.15) is reported as greater than 10 µM, the EC90 (dengue virus type 2 [1]; Baseline response 0 %, Hill slope -0.248, Maximum measured 160.986 %, Maximum response 100 %, Minimum measured 66.91 %, R squared 0.115) is reported as greater than 50 µM and the EC50 (dengue virus type 2 [1]; veroe6/tmprss2) is reported as greater than 50 µM. For the same compound, the EC90 (Zika virus; Zika virus, VeroE6/TMPRSS2, Maximum measured 113.51 %, Minimum measured 55.055 %, P-gp concentration 2 uM, P-gp inhibitor Elacidar) was greater than 10 µM, the EC90 (Zika virus; Zika virus, VeroE6/TMPRSS2, Maximum measured 115.408 %, Minimum measured 68.286 %, P-gp concentration 2 uM, P-gp inhibitor Elacidar) was greater than 50 µM and the EC50 (Zika virus; veroe6/tmprss2) was greater than 50 µM.
Compound `NCCCCc1ccc(NC(=O)c2cc(Cl)cc(NC(=O)OCc3ccccc3)c2)cc1` has an EC50 (dengue virus type 2 [1]; Dengue virus, VeroE6/TMPRSS2) greater than 5.56 µM, an EC90 (dengue virus type 2 [1]; Dengue virus, VeroE6/TMPRSS2, Maximum measured 145.088 %, Minimum measured 103.355 %) greater than 5.56 µM and an EC50 (dengue virus type 2 [2]; Vero C1008) of 4.18 µM. It also gave an EC90 (dengue virus type 2 [2]; Vero C1008, Baseline response 0 %, EC90 CI (lower) 1.854 uM, EC90 CI (upper) 4.634 uM, Hill slope -6.186, Maximum measured 92.478 %, Maximum response 100 %, Minimum measured 7.244 %, R squared 0.772) of 5.96 µM, an EC50 (Zika virus; Zika virus, VeroE6/TMPRSS2) greater than 5.56 µM and an EC90 (Zika virus; Zika virus, VeroE6/TMPRSS2, Maximum measured 140.797 %, Minimum measured 81.401 %, P-gp concentration 2 uM, P-gp inhibitor Elacidar) greater than 5.56 µM.
`CC(C)OC(=O)Nc1cc(Cl)cc(C(=O)Nc2cccc(CN)c2)c1` showed an EC50 (dengue virus type 2 [1]; Dengue virus, VeroE6/TMPRSS2) greater than 16.7 µM, an EC90 (dengue virus type 2 [1]; Dengue virus, VeroE6/TMPRSS2, Baseline response 0 %, Hill slope -10.347, Maximum measured 131.012 %, Maximum response 100 %, Minimum measured 66.05 %, R squared 0.241) greater than 16.7 µM and an EC50 (dengue virus type 2 [2]; Vero C1008) greater than 6.25 µM. It also gave an EC90 (dengue virus type 2 [2]; Vero C1008, Maximum measured 143.842 %, Minimum measured 98.266 %) greater than 6.25 µM, an EC50 (Zika virus; Zika virus, VeroE6/TMPRSS2) greater than 16.7 µM and an EC90 (Zika virus; Zika virus, VeroE6/TMPRSS2, Maximum measured 132.205 %, Minimum measured 71.008 %, P-gp concentration 2 uM, P-gp inhibitor Elacidar) greater than 16.7 µM.
In the case of `NCCCc1ccnc(NC(=O)c2cc(Cl)cc(NC(=O)OCc3ccccc3)c2)c1`, the EC50 (dengue virus type 2 [1]; Dengue virus, VeroE6/TMPRSS2) is reported as greater than 5.56 µM, the EC90 (dengue virus type 2 [1]; Dengue virus, VeroE6/TMPRSS2, Baseline response 0 %, Hill slope -1.225, Maximum measured 82.874 %, Maximum response 60 %, Minimum measured 33.609 %, R squared 0.331) is reported as greater than 5.56 µM and the EC50 (Zika virus; Zika virus, VeroE6/TMPRSS2) is reported as 0.532 µM. The EC90 (Zika virus; Zika virus, VeroE6/TMPRSS2) was 3.24 µM.
With `NS(=O)(=O)c1ccc(C2CCN(Cc3c[nH]c4ccccc34)CC2)cc1` the EC50 (dengue virus type 2 [1]; Dengue virus, VeroE6/TMPRSS2) was greater than 50 µM, the EC90 (dengue virus type 2 [1]; Dengue virus, VeroE6/TMPRSS2, Baseline response 0 %, Hill slope -0.438, Maximum measured 120.121 %, Maximum response 100 %, Minimum measured 70.269 %, R squared 0.213) was greater than 50 µM and the EC90 (Zika virus; Zika virus, VeroE6/TMPRSS2, Maximum measured 220.71 %, Minimum measured 69.091 %, P-gp concentration 2 uM, P-gp inhibitor Elacidar) was greater than 10 µM. It also gave an EC90 (Zika virus; Zika virus, VeroE6/TMPRSS2, Baseline response 0 %, Hill slope -0.394, Maximum measured 150.63 %, Maximum response 100 %, Minimum measured 65.565 %, P-gp concentration 2 uM, R squared 0.026, P-gp inhibitor Elacidar) greater than 50 µM and an EC50 (Zika virus; veroe6/tmprss2) greater than 50 µM.
Work on `O=C(Nc1cc(Cl)cc(N[C@H](C#CCO)c2ccc(-c3nn[nH]n3)cc2)c1)OCc1ccccc1` yielded an EC50 (dengue virus type 2 [1]; Dengue virus, VeroE6/TMPRSS2) greater than 50 µM, an EC90 (dengue virus type 2 [1]; Dengue virus, VeroE6/TMPRSS2, Baseline response 0 %, Hill slope -0.373, Maximum measured 106.055 %, Maximum response 100 %, Minimum measured 56.8 %, R squared 0.212) greater than 50 µM and an EC50 (Zika virus; Zika virus, VeroE6/TMPRSS2) greater than 16.7 µM. It also gave an EC90 (Zika virus; Zika virus, VeroE6/TMPRSS2, Maximum measured 78.226 %, Minimum measured 29.543 %, P-gp concentration 2 uM, P-gp inhibitor Elacidar) greater than 16.7 µM.
`O=C(O)c1cc(Cl)ccc1S(=O)(=O)NC1CCN(c2nc(C3CC3)cc(C(F)(F)F)n2)CC1` gave an EC90 (dengue virus type 2 [1]; Dengue virus, VeroE6/TMPRSS2, Maximum measured 136.17 %, Minimum measured 94.607 %) greater than 16.7 µM, an EC90 (dengue virus type 2 [1]; Dengue virus, VeroE6/TMPRSS2, Baseline response 0 %, Hill slope -0.112, Maximum measured 104.285 %, Maximum response 100 %, Minimum measured 47.241 %, R squared 0.035) greater than 3.33 µM and an EC50 (dengue virus type 2 [1]; veroe6/tmprss2) greater than 16.7 µM. The EC90 (Zika virus; Zika virus, VeroE6/TMPRSS2, Maximum measured 121.005 %, Minimum measured 84.589 %, P-gp concentration 2 uM, P-gp inhibitor Elacidar) was greater than 16.7 µM, the EC90 (Zika virus; Zika virus, VeroE6/TMPRSS2, Baseline response 0 %, Hill slope -0.273, Maximum measured 117.096 %, Maximum response 100 %, Minimum measured 55.547 %, P-gp concentration 2 uM, R squared 0.133, P-gp inhibitor Elacidar) was greater than 3.33 µM and the EC50 (Zika virus; veroe6/tmprss2) was greater than 16.7 µM.
